Experimental data published in a melting point compilation (Tetko et al.; mined from patent text by program, amines drawn as free bases though some values may be those of a salt).

Compared with `O=C(CCC1C2CC3CC(C2)CC1C3)N1C(=O)OCC1Cc1ccccc1` (stereo not given), `O=S1CC2CC(CN(Cc3ccccc3)C2)C1` (stereo not given) is higher in melting point: 82 to 83 °C for the first, 137 to 138 °C for the second.

First: CCCCc1ccc(C(=O)NCc2c[nH]c(=S)n2[C@H]2CCc3c(F)cc(F)cc3C2)cc1
Second: CCCC(=O)Cc1ccc(C(=O)Nc2ccc3cc(CN4CCCC4)cnc3c2C)cc1
The melting point of the first is higher: 242 to 243 °C for the first, 139 to 140 °C for the second.

Compared with `CCCNc1nc(N)nc(C)c1/C=C/C(C)(C)c1ccc(C(F)(F)F)cc1`, `CC(C)(C)c1ccc(OCC(=O)O)cc1` is lower in melting point: 140 to 141 °C for the first, 93 to 95 °C for the second.

First: COC(=O)c1nc(-c2ccc(Cl)c(OC)c2F)cc(N)c1OC
Second: C#CCOc1ccc(C(=O)C=Cc2c(OC)cc(OC)cc2OC)c(O)c1
The melting point of the first is lower: 114 to 118 °C for the first, 177 to 179 °C for the second.

First: CCCCCCc1ccc(OCCCCCC(=O)Nc2ccc(O)cc2)cc1O
Second: CCCCN(C)C(=O)CSCCCCCCOc1ccc(C2=C(c3ccccc3)CCCc3cc(O)ccc32)cc1
The melting point of the first is higher: 128 °C for the first, 103 to 105 °C for the second.

First: N#Cc1cccc(-c2ccc3c(c2)NC(=O)CO3)c1
Second: CC(=O)Nc1cccc(-c2ccc(C#N)c(=O)[nH]2)c1
The melting point of the first is lower: 242 °C for the first, 326 to 328 °C for the second.

First: CCOC(=O)c1sc(Oc2ccc(C(C)=O)c(OC)c2)c2c1CCc1cnn(C)c1-2
Second: CCOC(=O)c1sc2cc(OCc3cccnc3)ccc2c1Sc1ccccc1N(S(C)(=O)=O)S(C)(=O)=O
The melting point of the first is lower: 132 to 133 °C for the first, 165 to 167 °C for the second.

Compared with `O=C(O)CSC1CCCc2cc3c(cc21)OCO3` (stereo not given), `O=C1Nc2c(O)cccc2C(=O)N2CCCC12` (stereo not given) is higher in melting point: 138 to 139 °C for the first, 280 to 282 °C for the second.

First: COC(=O)c1ccccc1OCCN1CCC(c2c[nH]c3ccccc23)CC1
Second: Cn1nc2ccccc2c1C(=O)NCCCN1CCC(c2ccc(F)cc2)CC1
The melting point of the first is lower: 124 to 125 °C for the first, 136 to 140 °C for the second.

First: O=[N+]([O-])c1cc(-c2ccc(Cl)cc2)[nH]c1SC(F)(F)F
Second: CCOC(=O)C(=O)c1oc(=O)[nH]c1-c1ccc(Cl)cc1
The melting point of the first is higher: 185 to 193 °C for the first, 152 to 153 °C for the second.

Compared with `Cn1ccc2c3c(c(C(=O)OCc4ccccc4)cc21)C(=O)NC3=O`, `CCc1ccccc1-n1c(=O)[nH]c2c(C(N)=O)nc(-c3cccc(O)c3)nc21` is higher in melting point: 186 to 189 °C for the first, 355 to 357 °C for the second.

First: CC1(C)CCC(C)(C)c2cc3c(cc21)CCc1c(-c2ccc(C(=O)O)cc2)ccnc1-3
Second: Cc1cc(-c2cnn3c(C(F)(F)F)cc(-c4ccc(Br)cc4)nc23)ccn1
The melting point of the first is higher: 286 to 289 °C for the first, 226 °C for the second.

Compared with `CC(C)c1ncc(OCc2ccccc2)c(O)n1`, `CSc1nc(C)c(Cc2ccccc2)c(=O)[nH]1` is higher in melting point: 198 °C for the first, 220 to 222 °C for the second.

First: O=C(Nc1ccccc1Nc1ccnc2c(NC(=O)c3c(Cl)cccc3Cl)cccc12)c1cccnc1
Second: C=C(Nc1nc(-c2ccccc2)c(-c2nc3ccccc3c(=O)n2-c2ccccc2Cl)s1)c1ccco1
The melting point of the first is lower: 151 to 154 °C for the first, greater than 275 °C for the second.

Compared with `CO/N=C1\CCc2ccccc2C1=Cc1ccc(S(C)(=O)=O)cc1`, `C=Cc1ccc2nnn(OS(=O)(=O)c3ccc(C)cc3)c2c1` is lower in melting point: 175 to 178 °C for the first, 90 to 91 °C for the second.

First: CCc1ccc2oc(C(=O)Nc3ccc(-c4ccc(S(=O)(=O)NC(C(=O)O)C(C)C)cc4)cc3)c(C)c2c1OCc1ccccc1 (stereo not given)
Second: COc1ccc(S(=O)(=O)N(Cc2cccnc2)[C@@H](C(=O)NOCc2ccccc2)C(C)C)cc1
The melting point of the first is higher: 224 to 226 °C for the first, 74.5 to 76 °C for the second.

First: [N-]=[N+]=C1CCCCCCCCCCC1=O
Second: Cc1cc(O)c(C2CCCCC2)cc1Sc1cc(C2CCCCC2)c(O)cc1C
The melting point of the first is lower: 43 to 44 °C for the first, 128 to 130 °C for the second.

First: C[C@H]1COc2c(C#N)cccc2C(=O)N(C[C@@H](CCN)c2ccc(Cl)c(Cl)c2)C1
Second: CCCCCN1C(=O)C(CCc2nnn[nH]2)(NC(=O)c2ccc(Cl)c(Cl)c2)c2ccccc21 (stereo not given)
The melting point of the first is lower: 82 to 128 °C for the first, 142 °C for the second.

First: Cc1nc(Cl)c(-c2c(F)cccc2F)n1-c1ccc(Cl)cc1
Second: Fc1ccc(F)c(C(Sc2ccc(Cl)cc2)c2ccncc2Cl)c1 (stereo not given)
The melting point of the first is higher: 143 to 145 °C for the first, 70 to 72 °C for the second.

First: Nc1nc2c(ncn2OCCCOCP(=O)(O)O)c(=O)[nH]1
Second: O=c1[nH]c(NCCCn2ccnc2)nc2c1ncn2C1CC(O)C(CO)O1 (stereo not given)
The melting point of the first is higher: 247 to 250 °C for the first, 245 to 247 °C for the second.

First: CCOC(=O)C(OCC)C(=O)Nc1cc(Cl)cc(Cl)c1 (stereo not given)
Second: CCOC(=O)CCCNC(=O)c1ccc2c(c1)C=CC(C)(C)O2
The melting point of the first is lower: 84 to 86 °C for the first, 88 to 89 °C for the second.

Compared with `CC(=O)Oc1c(C(C)(C)C)cc(C=[N+]([O-])CC(C)C)cc1C(C)(C)C`, `CC(C)(C)CC(=O)Nc1cc(NC(=O)C(C)(C)C)cc(NC(=O)C(C)(C)C)c1` is higher in melting point: 177 to 180 °C for the first, 368 °C for the second.

First: NC(=NO)c1ncn2c1[C@@H]1CCCN1C(=O)c1c(Cl)cccc1-2
Second: O=c1[nH]ncc(NCCN2CCC(c3noc4cc(F)ccc34)CC2)c1Cl
The melting point of the first is higher: 249 to 250 °C for the first, 229 to 231 °C for the second.

First: CCCCOCC(COCc1ccccc1)OCn1cnc2c(O)nc(NC(C)=O)nc21 (stereo not given)
Second: CCCCC#CCCOc1cc(/C=C/C(=O)Nc2ccccc2C(=O)O)ccc1OC
The melting point of the first is lower: 139 to 141 °C for the first, 157 to 158 °C for the second.

Compared with `Oc1cc(C(F)(F)F)nc(C(F)(F)F)c1`, `CN(C)S(=O)(=O)c1cc(-n2c(=O)cc(C(F)(F)F)n(C)c2=O)ccc1Cl` is higher in melting point: 123 to 130 °C for the first, 194 to 196 °C for the second.

Compared with `COCCc1nc2c(N)nc3ccccc3c2n1CCCCCCCCNS(C)(=O)=O`, `CCCCCCCCCCNC(=O)c1ccccc1N(CC(=O)OC)CC(=O)OC` is lower in melting point: 109 to 110 °C for the first, 35 to 38 °C for the second.

Compared with `O=C(O)CCCc1cc2cc(Cl)ccc2n1S(=O)(=O)c1ccc2c(c1)CNCC2`, `COc1cc(OC)c(-c2cc3ccccc3[nH]2)cc1C=CC(=O)c1ccc(S(=O)(=O)NCC(=O)O)cc1` is lower in melting point: greater than 250 °C for the first, 189 to 190 °C for the second.

First: N#CCc1ccc(OCCCN2CCN(C34CC5CC(CC(C5)C3)C4)CC2)cc1
Second: O=C1C(=O)c2ccccc2C2=C1SCC1(CCN(CCCOc3ccc(F)cc3)CC1)O2
The melting point of the first is lower: 136 to 138 °C for the first, 164 to 165 °C for the second.

Compared with `COC(=O)Nc1ccc(C(=O)N(C)C)c(S(N)(=O)=O)c1`, `C=C(COC)c1ccc(NC(=O)N(C)C)cc1` is higher in melting point: 75 to 77 °C for the first, 96 to 97 °C for the second.

First: O=C1N(Cc2ccc(C(F)(F)F)o2)c2ccccc2C12COc1ccc(=O)[nH]c12 (stereo not given)
Second: O=C(Nc1ccc(C(F)(F)F)cc1)[C@H]1[C@H](c2ccccc2)C12CCCC2 (relative stereo)
The melting point of the first is higher: 175 to 177 °C for the first, 171 to 173 °C for the second.

First: CN1CCCCc2cc(Nc3ncc(Cl)c(N[C@@H]4CCCC[C@H]4NS(C)(=O)=O)n3)ccc21
Second: CN1CCN(CC/C=C/c2cc3ncc(C#N)c(Nc4ccc(Sc5nccn5C)c(Cl)c4)c3cc2F)CC1
The melting point of the first is lower: 102 to 104 °C for the first, 188 to 194 °C for the second.

Compared with `CC#CCOc1cc(OCC#CCC)ncn1`, `COc1ccc(NCC(C)C#N)c([N+](=O)[O-])c1` (stereo not given) is higher in melting point: 67.4 °C for the first, 114 to 115 °C for the second.

`CCCCNS(=O)(=O)CC(O)C(O)C(CC1CCCCC1)NC(=O)CC(CC)c1c[nH]cn1` (stereo not given) and `Cc1nc(CCOCCCCCCNCC(O)c2cc(Cl)c(N)c(Cl)c2)cs1` (stereo not given) cannot be ordered by melting point: 60 to 90 °C for the first, 67 to 69 °C for the second.

First: Cc1ccnc([N+](=O)[O-])c1O
Second: CC(C)(COc1ccc(O)c(C(N)=O)c1)[N+](=O)[O-]
The melting point of the first is lower: 87 to 88 °C for the first, 145 to 148 °C for the second.

First: COc1ccc2c(-c3ccc(OCCN4CCOCC4)cc3)c(Cc3ccc(Cl)cc3)oc2c1
Second: COc1ccc2cc(-c3ccc(OCC(O)CNC(C)(C)C)cc3)n(C)c(=O)c2c1 (stereo not given)
The melting point of the first is lower: 126 to 128 °C for the first, 130 to 131 °C for the second.

First: CNC(=O)c1ccc(C2=NOC(c3cc(Cl)cc(Cl)c3)(C(F)(F)F)C2)cc1C (stereo not given)
Second: C#CCn1c(=O)oc2cc(Cl)c(-c3ccc(C(F)(F)F)n(C)c3=O)cc21
The melting point of the first is lower: 184 to 185 °C for the first, 187 to 189 °C for the second.

First: CCN1C=C(N=[N+]=[N-])N=C(C2CC2)c2ccccc21
Second: O=C1c2ccccc2C(=O)N1CCCCN1CCC(c2noc3cc(F)ccc23)CC1
The melting point of the first is higher: 158 to 160 °C for the first, 144 to 146 °C for the second.

First: CN(C)Cc1ccc(CSCCNc2ncc([N+](=O)[O-])c(=O)[nH]2)o1
Second: CC(=O)OCC(=O)Nc1cccc([N+](=O)[O-])c1C#N
The melting point of the first is higher: 201 to 204 °C for the first, 157 to 158 °C for the second.

First: CNS(=O)(=O)c1ccc(CCN2CC=C(c3c[nH]c(-c4ccc(F)cc4)c3-c3ccncc3)CC2)cc1OC
Second: O=C(NN1CCN(CCc2c[nH]c3ccccc23)CC1)c1ccc(O)cc1
The melting point of the first is higher: 245 to 247 °C for the first, 190 to 192 °C for the second.

First: Clc1ccnc2[nH]c3ccc(Br)cc3c12
Second: O=C(CCl)c1ccc2c(c1)[nH]c1ccccc12
The melting point of the first is higher: greater than 220 °C for the first, 203 to 204 °C for the second.

Compared with `O=C(CCl)Nc1ccc(NNC(=O)c2ccccc2CO)cc1`, `CCOC(=O)C=C1CSC(NC(=O)c2ccccc2)=NN1C(=O)c1ccccc1` is higher in melting point: 172 to 173 °C for the first, 187 to 189 °C for the second.

`CCCCCCCCCCCCCc1ccc(-c2nc(-c3ccccc3Cl)nn2C)cc1` and `CC(C)N(CCC(c1ccccc1)c1cc(Br)ccc1OCc1ccccc1)C(C)C` (stereo not given) cannot be ordered by melting point: 55 to 57 °C for the first, 52 to 56 °C for the second.

Compared with `Cc1ccc(C2C(=O)CC(C)(C)CC2=O)cc1`, `Cc1ccc(S(=O)(=O)N=[N+]=[N-])cc1` is lower in melting point: 200 to 202 °C for the first, 79 to 82.5 °C for the second.

First: O=C1OC2(CCN(C(=O)Nc3cnc(-c4ccccc4)cn3)CC2)c2ccccc21
Second: COC(=O)/C=C(\c1ccccc1)c1ccc2c(c1)C(C)(C)OC(=O)N2
The melting point of the first is higher: 206 °C for the first, 181 to 182 °C for the second.

Compared with `COc1ccc(CCN(C)C(=O)/C=C/c2cccnc2)cc1OC`, `COc1cc2ncc(C#N)c(Nc3cccc(Oc4ccccc4)c3)c2cc1OC` is higher in melting point: 84 to 86 °C for the first, 253 to 254 °C for the second.

First: O=Cc1scc2c1-c1cccc3cccc-2c13
Second: O=C1C=CC(=C(c2ccc3ccccc3c2)c2ccc3ccccc3c2)O1
The melting point of the first is lower: 123 to 126 °C for the first, 138 to 140 °C for the second.

First: COc1ccccc1Oc1c(Cl)nc(SC)nc1Cl
Second: Cc1ccc(C(C)C)c(OCCN(C)Cc2c(C)c(O)c(C)c(C)c2OCCO)c1
The melting point of the first is higher: 148 to 150 °C for the first, 115 to 118 °C for the second.

Compared with `CC1=C(Br)C=CC(Cl)(C=NO)C1` (stereo not given), `O=Cc1cnc(Br)cn1` is lower in melting point: 77 to 78 °C for the first, 56 to 58 °C for the second.

First: O=S(=O)(CF)c1cccc(Br)c1Cl
Second: Brc1cc(Br)c2c(c1)CCN2
The melting point of the first is lower: 149 °C for the first, 164 to 165 °C for the second.

Compared with `c1cc(-c2c(-c3ccsc3)nc3ccc(N4CC5CNCC5C4)nn23)ccn1` (stereo not given), `CC(=O)OC1CC(OC(C)=O)C2(C)C(C1)C(Br)C(Br)C1C3CCC(C(C)CCCC(C)C)C3(C)CCC12` (stereo not given) is lower in melting point: 196 to 198 °C for the first, 155 to 156 °C for the second.
